Measurements reported in patent US6306422A, “Compositions and devices for controlled release of active ingredients” (priority 1998, dated 2001).
Counter-ions that a name gives are not always drawn.

Columns and labels:
struvite encrustation = details: cited from earlier work
[1] = Swelling in solvents for drug loading and AHA loading of the hydrogel; type: physicochemical
Description: Six pieces of the MMA/AA (90/9) polymer were weighed in the dry state. Each piece was placed into 4 ml of a separate solvent. The solvents used were pH buffers with pH values of 4.0, 7.4, and 9.0, 90 v/v % ethanol, methanol, and 90 v/v % acetone at 37° C. […] A 16 w/w % solution of acetohydroxamic acid in 90% acetone was prepared.
Hydrogel pieces were weighed in the dry state. Six pieces weighing approximately the same were separated out for each respective pH buffer value. Each gel piece was individually placed into a test tube containing 3 ml of the 16% AHA acetone solution. The test tubes were capped and wrapped in parafilm to prevent evaporation of the solvent. The test tubes were placed into a 37° C. water bath for 48 hours. The hydrogel pieces were then removed from the AHA solution and placed in a vacuum oven at 60° C. for solvent evaporation and then at room temperature for a total drying time of 72 hours. The drug-loaded gels were then reweighed, and the total AHA content was calculated.
Absorbances for each of the solutions were measured at 515 nm on a Perkin-Elmer Lambda 3B UV/VIS Spectrophotometer. A calibration curve was calculated from the standard concentration solutions. The concentrations of the AHA were calculated from the absorbances and raised to the initial surface area of the gel matrix.

urease = target: T1, urease (Proteus mirabilis, UniProt P17086); assay: Bacteria/urease study: pH of artificial urine with Proteus mirabilis; type: cell-based; details: 10^11 bacteria/ml
T1 construct: endogenous in cells; host or cells: living Proteus mirabilis (clinic isolate) in artificial urine
T1 sequence (P17086 whole entry): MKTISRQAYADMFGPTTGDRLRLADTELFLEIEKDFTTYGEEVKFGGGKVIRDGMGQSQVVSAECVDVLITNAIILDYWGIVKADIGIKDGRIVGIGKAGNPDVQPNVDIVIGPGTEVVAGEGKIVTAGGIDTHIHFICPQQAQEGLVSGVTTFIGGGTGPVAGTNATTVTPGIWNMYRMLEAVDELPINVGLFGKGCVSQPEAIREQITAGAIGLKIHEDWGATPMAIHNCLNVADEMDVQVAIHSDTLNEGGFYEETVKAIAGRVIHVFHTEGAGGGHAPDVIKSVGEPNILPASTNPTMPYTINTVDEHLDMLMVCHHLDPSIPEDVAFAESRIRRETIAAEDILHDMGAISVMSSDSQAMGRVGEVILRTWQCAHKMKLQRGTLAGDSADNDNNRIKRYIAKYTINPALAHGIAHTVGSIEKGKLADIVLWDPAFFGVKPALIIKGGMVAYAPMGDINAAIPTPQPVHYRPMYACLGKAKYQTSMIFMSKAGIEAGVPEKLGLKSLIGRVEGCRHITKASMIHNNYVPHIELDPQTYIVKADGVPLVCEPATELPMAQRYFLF
T1 sequence (P17088 whole entry, further chain): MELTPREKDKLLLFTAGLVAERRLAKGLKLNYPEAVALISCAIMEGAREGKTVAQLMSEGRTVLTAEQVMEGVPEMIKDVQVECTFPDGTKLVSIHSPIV
T1 sequence (P17087 whole entry, further chain): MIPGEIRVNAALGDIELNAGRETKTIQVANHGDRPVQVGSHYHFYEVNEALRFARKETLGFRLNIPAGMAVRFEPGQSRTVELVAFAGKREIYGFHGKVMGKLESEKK
Description: After mixing, the urine was filter-sterilized into a sterile container using a 0.2 μm pore size filtration system. A solution of this artificial urine containing 750 μg/ml of AHA was prepared by dissolving 0.0757 g of the AHA in 100 ml of the urine. This solution was then diluted in series to yield artificial urine with AHA concentrations of 375, 187.5, 75, and 7.5 μg/ml.
Fifty milliliters of these solutions were sterilized by filtering them through a syringe filter with 0.2 μm pore size into a sterile container.
Proteus mirabilis were harvested from the Surgery/Urology clinic at the University of Florida, Gainesville, Fla. These bacteria were cultured on a heart infusion agar (Difco Laboratories) for 48 hours at 37° C. Bacteria were aseptically harvested and suspended in a solution of artificial urine not containing any of the urease inhibitor. Dilutions of this suspension were made to 10,000, and a count of the bacteria was made on a microscopic counting grid. The initial concentration of bacteria was back-calculated by using the Petroff-Hauser formula shown in equation two. [formula]
For the urine solutions containing the urease inhibitor and two control solutions (one containing bacteria and the other without), a series of six test tubes was set up. […] The pH of each of the samples was measured initially and then at 2 hour intervals up to 12 hours. […]

[2] = cited from earlier work
[3] = cited from earlier work; remark: listed apart in the source
bacteria = details: cited from earlier work
[4] = cited from earlier work; remark: listed apart in the source
[5] = system: Proteus sp. and other urease-producing organisms; details: cited from earlier work
[6] = in vivo; cited from earlier work

Chondroitin sulfate
prevention of struvite encrustation (struvite encrustation): ineffective

CC(=O)NO [AHA, acetohydroxamic acid]
concentration near the saturation point ([1]; in 90% acetone): ~16 w/w % | solubility of AHA in the chosen solutions ([1]; pH 4.0, 7.4, 9.0 buffers, 90 v/v % ethanol, methanol, 90 v/v % acetone): very soluble | effect of AHA on the activity of urease (pH of artificial urine) (urease; AHA 7.5-750 μg/ml, 37° C., up to 24 hours): resists pH increase for a longer time and experiences a smaller overall pH increase | concentration of AHA giving therapeutic benefit (urease; artificial urine): 7.5 µg/mL | pKa [2]: 9.3 | absorption from the gastrointestinal tract ([3]; human, in vivo): well absorbed | adverse effects limiting use ([3]; patients): Coomb's hemolytic anemia, GI complaints, bone marrow depression, and teratogenicity | effect of the presence of AHA on methenamine (bacteria): increases the antibacterial activity of the methenamine

O=C(O)CNC(=O)c1ccccc1 [hippuric acid]
solubility in alcohols [4]: highly soluble

O=C(O)CC(O)(CC(=O)O)C(=O)O [Sodium citrate]
prevention of struvite encrustation (struvite encrustation): shows potential

heparin sulfate
prevention of struvite encrustation (struvite encrustation): ineffective

[H]/N=C(\N/C(=N/[H])NCCCCCCNC(=N)NC(=N)Nc1ccc(Cl)cc1)Nc1ccc(Cl)cc1 [chlorhexidine]
solubility in alcohols [4]: highly soluble

Gentamicin
effectiveness against Proteus sp. and other urease-producing organisms [5]: highly effective | toxicity limiting plasma concentrations [6]: systemic nephrotoxicity
